Measured values: US11666584B2, “Steroidal hormones for the treatment and prevention of wave burst arrhythmia” (ASSISTANCE PUBLIQUE—HOPITAUX DE PARIS, priority 2016, dated 2023)
Read-outs that look alike come from different tables or passages of the source.

Legend:
[1] = characteristic of the pill's progestogen; cited from earlier work
IKr potassium channel [2] = target: T1, IKr potassium channel (Homo sapiens, UniProt Q12809)
Method: Statistics: ns represents p>0.1. Various tests (Chi^2 test with trend, one-way ANOVA with Tukey or Kruskal-Wallis post-test with Dunn's post-test) were used. The quantitative data are presented as a mean±standard error or median with interquartile range.
The PC1 value is obtained by analysis by main components of the variables ΔQTc (%), ΔTpTe (%) and ΔTAmp (%) and quantitatively reflects the IKr inhibition obtained three hours after taking sotalol.
The ΔQTcF, ΔTpTe and ΔTAmp were also calculated.

[3] = target: T2, androgen receptor (NR3C4) (Homo sapiens, UniProt P10275); conditions: characteristic of the progestogen; cited from earlier work
T2 sequence (P10275 1-920): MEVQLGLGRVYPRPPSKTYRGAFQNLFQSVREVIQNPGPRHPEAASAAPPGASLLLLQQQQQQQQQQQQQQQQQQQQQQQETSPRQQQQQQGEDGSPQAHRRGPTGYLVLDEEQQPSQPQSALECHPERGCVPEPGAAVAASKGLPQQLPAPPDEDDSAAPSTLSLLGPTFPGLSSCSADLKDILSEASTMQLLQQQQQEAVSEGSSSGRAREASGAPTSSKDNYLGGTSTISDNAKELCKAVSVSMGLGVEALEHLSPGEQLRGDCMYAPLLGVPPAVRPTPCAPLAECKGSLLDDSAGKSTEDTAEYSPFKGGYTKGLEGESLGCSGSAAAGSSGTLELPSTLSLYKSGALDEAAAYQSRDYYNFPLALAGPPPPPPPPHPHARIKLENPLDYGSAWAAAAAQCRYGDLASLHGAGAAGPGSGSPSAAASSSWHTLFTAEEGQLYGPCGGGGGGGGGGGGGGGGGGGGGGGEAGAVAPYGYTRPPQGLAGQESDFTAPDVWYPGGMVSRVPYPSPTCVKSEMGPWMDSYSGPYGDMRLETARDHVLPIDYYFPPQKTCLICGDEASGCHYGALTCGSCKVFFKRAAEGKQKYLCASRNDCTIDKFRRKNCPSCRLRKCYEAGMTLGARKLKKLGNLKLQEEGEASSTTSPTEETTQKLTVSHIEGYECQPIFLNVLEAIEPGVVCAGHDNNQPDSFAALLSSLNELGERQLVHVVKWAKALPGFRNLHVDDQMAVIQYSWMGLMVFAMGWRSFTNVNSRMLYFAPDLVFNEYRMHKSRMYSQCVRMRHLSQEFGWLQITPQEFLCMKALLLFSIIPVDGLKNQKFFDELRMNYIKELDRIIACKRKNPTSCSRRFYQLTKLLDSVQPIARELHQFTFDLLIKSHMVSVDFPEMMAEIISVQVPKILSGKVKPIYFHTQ

[4] = tested on: transgenic rabbits with a long QT interval; conditions: cited from earlier work
IKr potassium channel [5] = target: T1, IKr potassium channel; test: ECG changes three hours after a single oral dose of 80 mg sotalol in healthy volunteers (Example 1); assay type: in vivo; parameters: from tissue; host or cells: heart of living human volunteers (in vivo ECG); conditions: for decrease in TAmp / increase in TpTe: H3 after 80 mg sotalol vs basal; for subjects exhibiting a double peak (notch) / subjects exhibiting a double peak (notch), proportion: after 80 mg sotalol
Method: Results obtained on a cohort of 995 volunteers in good health, from 18 to 60 years old, of European or North African origin, were used for the development of a marker representative of inhibition of the IKr potassium channel.
Briefly, the electrocardiogram (ECG) of the patients (each one in triplicate, for 10 seconds) was recorded after 10 minutes at rest lying on their back. A single oral dose of 80 mg of sotalol was then given to the patients and the ECG monitoring was continued. Three hours after the sotalol had been taken, the ECG was again recorded (in triplicate) after the subjects had remained lying on their back for 10 minutes.
The QTcF (QT corrected using Fridericia's formula), TpTe (interval between the first peak and the end of the T wave), TAmp (amplitude of the first peak of the T wave) and the presence of double peaks in the T wave (called notches) were quantified. The Fridericia correction (QTcF) was used to correct the QT with respect to the heart rate, in accordance with the ICH guidelines E14.
TpTe was measured using the tangent method, in triplicate, on a representative heart beat (averaged representation of an ECG of 10 seconds) on the V3, V4 and V5 derivations. In the event of a double peak of the T wave (notch), the peak taken into consideration was the first peak, even if the amplitude of the T wave was smaller for this peak. The average value obtained was retained. In the event of it being impossible to measure TpTe on V3, V4 or V5, the measurement was instead carried out on V2 (for V3), or V6 (for V4/V5).
In order to measure TAmp, positioning was on the site of the maximum amplitude of the first peak of the T wave on a representative beat (averaged representation of an ECG of 10 seconds) on the DII, V2 and V3 leads. The average of the TAmp values resulting from these three leads, and measured on three different ECGs of 10 seconds (in triplicate), was calculated and retained. If it was not possible to measure a TAmp on one of these leads (in particular because of a low value (<0.1 mV)), the V4 lead was used.
QTcF was measured using the tangent method on the DII lead for three consecutive beats and the average value of an evaluation in triplicate was retained.
For these parameters, the difference between the value obtained at H3 and the basal value was measured. This difference was expressed as percentage relative to the basal value, and the calculations were carried out such that the value calculated is positive.
The following calculations were therefore carried out: ΔQTcF (%)=(QTcF at H3−QTcF basal)/(QTcF basal)×100 ΔTpTe (%)=(TpTe at H3−TpTe basal)/(TpTe basal)×100 ΔTAmp (%)=(TAmp basal−TAmp at H3)/(TAmp basal)×100
In order to evaluate the double peaks (notches), all the ECGs were evaluated independently by two investigators. The patients were described as notchers or non-notchers, in the event of agreements between the two investigators.
The statistical analyses were carried out with the R software (https://www.r-project.org/).

torsades de pointes = test: Clinical case: testosterone in a person with hypogonadism and arrhythmic storm on torsades de pointes (Example 3); assay type: in vivo, human
Method: Peripheral hypogonadism was identified in a person suffering from ischemic cardiopathy and from Erdheim-Chester disease with arrhythmic storm on torsades de pointes with long QT and notching (double peak (notch) of the T wave) promoted by iatrogenesis and bradycardia with more than seven episodes in less than one week.
Testosterone (Androtardyl, testosterone enantate 250 mg/ml) was administered to the patient in amounts which made it possible to maintain a testosterone level making it possible to correct their hypogonadism, the bradycardia was corrected and an implantable defibrillator was implanted as secondary prevention.

[6] = three hours after 80 mg sotalol, difference between groups (FIG. 3)
[7] = first of the two cohorts (exploration)
[8] = second of the two cohorts (replication)
[9] = three hours after single oral dose of 80 mg sotalol vs basal

T1 sequence (Q12809 whole entry): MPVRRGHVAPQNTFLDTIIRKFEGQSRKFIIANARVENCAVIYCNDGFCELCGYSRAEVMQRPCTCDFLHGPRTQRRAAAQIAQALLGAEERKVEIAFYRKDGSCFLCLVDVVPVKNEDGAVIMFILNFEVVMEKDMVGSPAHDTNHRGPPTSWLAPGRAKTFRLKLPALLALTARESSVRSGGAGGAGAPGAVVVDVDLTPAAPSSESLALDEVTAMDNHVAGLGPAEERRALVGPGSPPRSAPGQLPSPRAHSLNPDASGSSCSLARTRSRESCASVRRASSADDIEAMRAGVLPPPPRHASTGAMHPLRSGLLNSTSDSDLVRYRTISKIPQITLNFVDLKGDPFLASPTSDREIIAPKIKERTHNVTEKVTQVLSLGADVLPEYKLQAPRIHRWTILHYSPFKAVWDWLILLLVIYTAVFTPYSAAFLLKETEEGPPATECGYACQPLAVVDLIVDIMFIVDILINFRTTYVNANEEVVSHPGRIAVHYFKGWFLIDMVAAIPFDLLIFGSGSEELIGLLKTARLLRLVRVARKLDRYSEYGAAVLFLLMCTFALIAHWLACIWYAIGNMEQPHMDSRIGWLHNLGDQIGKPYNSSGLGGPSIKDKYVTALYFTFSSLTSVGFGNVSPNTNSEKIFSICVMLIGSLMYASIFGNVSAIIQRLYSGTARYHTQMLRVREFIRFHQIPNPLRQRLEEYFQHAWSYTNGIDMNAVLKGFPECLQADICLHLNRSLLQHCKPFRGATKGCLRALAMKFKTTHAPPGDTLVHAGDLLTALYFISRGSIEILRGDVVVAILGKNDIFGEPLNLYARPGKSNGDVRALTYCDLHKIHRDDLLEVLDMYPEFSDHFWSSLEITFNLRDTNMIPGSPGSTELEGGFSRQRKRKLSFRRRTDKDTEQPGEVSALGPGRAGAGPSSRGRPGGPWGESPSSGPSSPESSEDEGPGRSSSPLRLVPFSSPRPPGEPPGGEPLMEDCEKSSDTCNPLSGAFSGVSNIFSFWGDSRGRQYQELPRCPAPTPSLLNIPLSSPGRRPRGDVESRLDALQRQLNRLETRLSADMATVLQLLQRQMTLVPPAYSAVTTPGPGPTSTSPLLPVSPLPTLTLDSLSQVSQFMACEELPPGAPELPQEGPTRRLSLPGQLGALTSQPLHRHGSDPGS

C#C[C@]1(O)CC[C@H]2[C@@H]3CCC4=CCCC[C@@H]4[C@H]3C(=C)C[C@@]21CC [desogestrel]
Progestogenic activity [1]: High
incidence of double peaks (notches) (IKr potassium channel [2]; female, human, in vivo, 3 h): 7.3%
effect with regard to the appearance of a double peak (notch) of the T wave (IKr potassium channel [2]; in vivo): protective
risk of drug-induced IKr inhibition (IKr potassium channel [2]; in vivo): neutral

C[C@]12CCC3=C4CCC(=O)C=C4CC[C@H]3[C@@H]1CC[C@@]2(O)CC#N [dienogest]
Androgenicity [3]: low androgenic activity, or even an anti-androgenic activity

C[C@]12CCC(=O)C=C1[C@@H]1C[C@@H]1[C@H]1[C@@H]3[C@@H]4C[C@@H]4[C@@]4(CCC(=O)O4)[C@@]3(C)CC[C@@H]12 [drospirenone]
Progestogenic activity [1]: Intermediate
risk of drug-induced IKr inhibition (IKr potassium channel [2]; conclusion in words, by pill type): greatest risk
increase in QTcF greater than that of patients taking levonorgestrel (IKr potassium channel [2]; [6]): 7.0 ± 2.7 ms
increase in QTcF greater than that of patients without hormonal contraception (IKr potassium channel [2]; [6]): 6.6 ± 2.6 ms
incidence of double peaks (notches) (IKr potassium channel [2]; three hours after administration of Sotalol, by pill type (FIG. 4)): 25.8%

C#C[C@]1(O)C=C[C@H]2[C@@H]3CCC4=CC(=O)CC[C@@H]4[C@H]3CC[C@@]21CC [gestodene]
Androgenicity [3]: Intermediate/variable
Progestogenic activity [1]: High
incidence of double peaks (notches) (IKr potassium channel [2]; female, human, in vivo, 3 h): 23.5%

C#C[C@]1(O)CC[C@H]2[C@@H]3CCC4=CC(=O)CC[C@@H]4[C@H]3CC[C@@]21CC [levonorgestrel]
Progestogenic activity [1]: High
effect with regard to the increase in QT (IKr potassium channel [2]; conclusion in words): protective
incidence of double peaks (notches) (IKr potassium channel [2]; female, human, in vivo, 3 h): 16.4%
risk of drug-induced IKr inhibition (IKr potassium channel [2]; in vivo): neutral

CC(=O)[C@H]1CC[C@H]2[C@@H]3CCC4=CC(=O)CC[C@]4(C)[C@H]3CC[C@]12C [progesterone]
effect on sudden death [4]: protective effect

CC(C)NCC(O)c1ccc(NS(C)(=O)=O)cc1 (centres unmarked) [sotalol]
average QTc increase observed with sotalol (IKr potassium channel [2]; study of the present application, as summarised): 20 ms
decrease in TAmp (IKr potassium channel [5]; exploration cohort): 13.6±15.7%
increase in TpTe (IKr potassium channel [5]; exploration cohort): 14.2±15.6%
subjects exhibiting a double peak (notch) (IKr potassium channel [5]; [7]): 40 subjects
subjects exhibiting a double peak (notch), proportion (IKr potassium channel [5]; [7]): 8%
PC1 value (IKr potassium channel [5]; non-notchers, exploration cohort): 0.3±1.1
PC1 value (IKr potassium channel [5]; non-notchers, replication cohort): 0.3±1.1
PC1 value (IKr potassium channel [5]; notchers, exploration cohort, PC1 correlates negatively with ΔQTc, ΔTAmp, ΔTpTe): −2.5±1.5
PC1 value (IKr potassium channel [5]; notchers, replication cohort): −2.3±1.8
decrease in TAmp (IKr potassium channel [5]; replication cohort): 12.8±15.3%
increase in TpTe (IKr potassium channel [5]; replication cohort): 15.9±20.5%
subjects exhibiting a double peak (notch) (IKr potassium channel [5]; [8]): 51 subjects
subjects exhibiting a double peak (notch), proportion (IKr potassium channel [5]; [8]): 10%
absolute change in the duration of QTcF (IKr potassium channel [5]; [9]): 21.4 ± 14 ms
relative change in the duration of QTcF (IKr potassium channel [5]; [9]): 5.5±3.5%

CCCCCCC(=O)O[C@H]1CC[C@H]2[C@@H]3CCC4=CC(=O)CC[C@]4(C)[C@H]3CC[C@]12C [testosterone, testosterone enantate]
repolarization (torsades de pointes; following the introduction of testosterone, one patient): normalized
recurrence of torsades de pointes (defibrillator monitoring) (torsades de pointes; three months following the introduction of testosterone, despite reintroduction of QTc-prolonging drug (Vemurafenob)): absence of recurrence of torsades de pointes
